{"source": "paper PMC9199881", "about": "(Clinical and Translational Science, 2022)", "key": {"[1]": {"system": "patients with PV and ITP", "conditions": "rilzabrutinib 400 mg b.i.d.; cited from earlier work"}, "[2]": {"system": "rat antibody-mediated Arthus model", "conditions": "cited from earlier work"}, "[3]": {"system": "healthy subjects", "assay": "Safety assessment", "type": "in vivo, human"}, "[4]": {"system": "human ether-a-go-go-related gene (hERG) current", "conditions": "10 μM; hERG-transfected HEK293 cells; ref unpublished preclinical safety studies; cited from earlier work"}, "[5]": {"system": "cytochrome P450 3A4 (CYP3A4)", "conditions": "enzymatic studies; cited from earlier work"}, "[6]": {"conditions": "cited from earlier work"}, "[7]": {"system": "healthy subjects", "assay": "ECG by timepoint analysis and categorical outliers, Part B", "type": "in vivo, human"}, "[8]": {"system": "healthy subjects", "assay": "Concentration-QTc", "type": "in vivo, human"}, "[9]": {"system": "spontaneous canine pemphigus foliaceus", "conditions": "cited from earlier work"}, "[10]": {"assay": "Plasma pharmacokinetics, Part B", "conditions": "400 mg single dose alone"}, "[11]": {"conditions": "Part B, 400 mg rilzabrutinib plus ritonavir"}, "[12]": {"conditions": "Part B, rilzabrutinib 400 mg + ritonavir 100 mg, first column of the group"}, "[13]": {"conditions": "Part B, rilzabrutinib 400 mg + ritonavir 100 mg, second column of the group"}, "[14]": {"conditions": "Part B, linear model with an intercept"}}, "data": [{"smiles": "CC(C)(/C=C(\\C#N)C(=O)N1CCC[C@@H](n2nc(-c3ccc(Oc4ccccc4)cc3F)c3c(N)ncnc32)C1)N1CCN(C2COC2)CC1", "note": "[Rilzabrutinib, rilzabrutinib]", "values": [{"measurement": "prolonged QTcF interval among safety concerns", "setting": "[1]", "result": "did not report prolonged QTcF interval"}, {"measurement": "anti-inflammatory effects", "setting": "[2]", "result": "rapid and significant anti‐inflammatory effects"}, {"measurement": "serious TEAEs or deaths", "setting": "[3]; Part B", "result": "no serious TEAEs or deaths"}, {"measurement": "Treatment-related TEAE: Abdominal pain, n (%)", "setting": "[3]; Part B, 400 mg alone", "result": "3 (9.4) n (%)"}, {"measurement": "Treatment-related TEAE: Diarrhea, n (%)", "setting": "[3]; Part B, 400 mg alone", "result": "9 (28.1) n (%)"}, {"measurement": "Treatment-related TEAE: Dizziness, n (%)", "setting": "[3]; Part B, 400 mg alone", "result": "0 n (%)"}, {"measurement": "Treatment-related TEAE: Dysgeusia, n (%)", "setting": "[3]; Part B, 400 mg alone", "result": "1 (3.1) n (%)"}, {"measurement": "Treatment-related TEAE: Frequent bowel movements, n (%)", "setting": "[3]; Part B, 400 mg alone", "result": "0 n (%)"}, {"measurement": "Treatment-related TEAE: Gastrointestinal disorders, n (%)", "setting": "[3]; Part B, 400 mg alone", "result": "13 (40.6) n (%)"}, {"measurement": "Treatment-related TEAE: Headache, n (%)", "setting": "[3]; Part B, 400 mg alone", "result": "1 (3.1) n (%)"}, {"measurement": "Treatment-related TEAE: Herpex simplex, n (%)", "setting": "[3]; Part B, 400 mg alone", "result": "0 n (%)"}, {"measurement": "Treatment-related TEAE: Infections and infestations, n (%)", "setting": "[3]; Part B, 400 mg alone", "result": "0 n (%)"}, {"measurement": "Treatment-related TEAE: Lethargy, n (%)", "setting": "[3]; Part B, 400 mg alone", "result": "0 n (%)"}, {"measurement": "Treatment-related TEAE: Nervous system disorders, n (%)", "setting": "[3]; Part B, 400 mg alone", "result": "2 (6.3) n (%)"}, {"measurement": "Treatment-related TEAE: Somnolence, n (%)", "setting": "[3]; Part B, 400 mg alone", "result": "0 n (%)"}, {"measurement": "Treatment-related TEAE: Subjects with ≥1 TEAE, n (%)", "setting": "[3]; Part B, 400 mg alone", "result": "14 (43.8) n (%)"}, {"measurement": "Treatment-related TEAE: Vomiting, n (%)", "setting": "[3]; Part B, 400 mg alone", "result": "0 n (%)"}, {"measurement": "incidence of treatment-related TEAEs", "setting": "[3]; Part B, 400 mg alone", "result": 43.8, "unit": "%"}, {"measurement": "participants with diarrhea", "setting": "[3]; Part B, 400 mg alone", "result": 28.1, "unit": "%"}, {"measurement": "incidence of treatment-related TEAEs", "setting": "[3]; [11]", "result": 44.1, "unit": "%"}, {"measurement": "participants with diarrhea", "setting": "[3]; [11]", "result": 35.3, "unit": "%"}, {"measurement": "moderate (grade 2) rilzabrutinib related TEAEs", "setting": "[3]; Part B, nausea with 400 mg and diarrhea with 400 mg plus 100 mg ritonavir, in two participants", "result": "two moderate (grade 2) rilzabrutinib related TEAEs"}, {"measurement": "Treatment-related TEAE: Abdominal pain, n (%)", "setting": "[3]; [12]", "result": "0 n (%)"}, {"measurement": "Treatment-related TEAE: Diarrhea, n (%)", "setting": "[3]; [12]", "result": "12 (35.3) n (%)"}, {"measurement": "Treatment-related TEAE: Dizziness, n (%)", "setting": "[3]; [12]", "result": "0 n (%)"}, {"measurement": "Treatment-related TEAE: Dysgeusia, n (%)", "setting": "[3]; [12]", "result": "2 (5.9) n (%)"}, {"measurement": "Treatment-related TEAE: Frequent bowel movements, n (%)", "setting": "[3]; [12]", "result": "1 (2.9) n (%)"}, {"measurement": "Treatment-related TEAE: Gastrointestinal disorders, n (%)", "setting": "[3]; [12]", "result": "14 (41.2) n (%)"}, {"measurement": "Treatment-related TEAE: Headache, n (%)", "setting": "[3]; [12]", "result": "0 n (%)"}, {"measurement": "Treatment-related TEAE: Herpex simplex, n (%)", "setting": "[3]; [12]", "result": "1 (2.9) n (%)"}, {"measurement": "Treatment-related TEAE: Infections and infestations, n (%)", "setting": "[3]; [12]", "result": "1 (2.9) n (%)"}, {"measurement": "Treatment-related TEAE: Lethargy, n (%)", "setting": "[3]; [12]", "result": "0 n (%)"}, {"measurement": "Treatment-related TEAE: Nervous system disorders, n (%)", "setting": "[3]; [12]", "result": "3 (8.8) n (%)"}, {"measurement": "Treatment-related TEAE: Somnolence, n (%)", "setting": "[3]; [12]", "result": "2 (5.9) n (%)"}, {"measurement": "Treatment-related TEAE: Vomiting, n (%)", "setting": "[3]; [12]", "result": "0 n (%)"}, {"measurement": "Treatment-related TEAE: Abdominal pain, n (%) [second column of the group]", "setting": "[3]; [13]", "result": "0 n (%)"}, {"measurement": "Treatment-related TEAE: Diarrhea, n (%) [second column of the group]", "setting": "[3]; [13]", "result": "12 n (%)"}, {"measurement": "Treatment-related TEAE: Dizziness, n (%) [second column of the group]", "setting": "[3]; [13]", "result": "0 n (%)"}, {"measurement": "Treatment-related TEAE: Dysgeusia, n (%) [second column of the group]", "setting": "[3]; [13]", "result": "2 n (%)"}, {"measurement": "Treatment-related TEAE: Headache, n (%) [second column of the group]", "setting": "[3]; [13]", "result": "0 n (%)"}, {"measurement": "Treatment-related TEAE: Herpex simplex, n (%) [second column of the group]", "setting": "[3]; [13]", "result": "1 n (%)"}, {"measurement": "Treatment-related TEAE: Lethargy, n (%) [second column of the group]", "setting": "[3]; [13]", "result": "0 n (%)"}, {"measurement": "Treatment-related TEAE: Nausea, n (%) [second column of the group]", "setting": "[3]; [13]", "result": "4 n (%)"}, {"measurement": "Treatment-related TEAE: Somnolence, n (%) [second column of the group]", "setting": "[3]; [13]", "result": "2 n (%)"}, {"measurement": "Treatment-related TEAE: Vomiting, n (%) [second column of the group]", "setting": "[3]; [13]", "result": "0 n (%)"}, {"measurement": "changes in clinical chemistry", "setting": "[3]; at the studied doses", "result": "No clinically meaningful changes"}, {"measurement": "safety profile", "setting": "[3]; at the studied doses", "result": "acceptable safety profile"}, {"measurement": "signal on hERG current", "setting": "[4]", "result": "no signal"}, {"measurement": "interaction with CYP3A4", "setting": "[5]", "result": "substrate for and weak inhibitor"}, {"measurement": "accumulation after chronic multiple dosing", "setting": "[6]; 400 mg b.i.d.", "result": "minimal accumulation"}, {"measurement": "delay of absorption by a moderate fat meal", "setting": "[6]; healthy volunteers", "result": "~ 1 h"}, {"measurement": "median time to maximum plasma concentration [Tmax]", "setting": "[6]; single dose 50–1200 mg, healthy volunteers", "result": "30 to 150", "unit": "min"}, {"measurement": "mean half-life (t 1/2)", "setting": "[6]; single dose, healthy volunteers", "result": "84 to 234", "unit": "min"}, {"measurement": "effect on HR", "setting": "[7]; Part B", "result": "no effect on HR"}, {"measurement": "effect on cardiac conduction (PR and QRS intervals)", "setting": "[7]; Part B, at the studied doses", "result": "no clinically relevant effect"}, {"measurement": "treatment-emergent T-wave or U-wave morphology changes", "setting": "[7]; Part B, following 400 mg rilzabrutinib", "result": "one subject with a flat T wave at two timepoints"}, {"measurement": "effects on ECG parameters, including the QTc interval", "setting": "[7]; therapeutic and supratherapeutic (with ritonavir) exposures", "result": "no clinically relevant effects"}, {"measurement": "concentration–QTc relationship (slope)", "setting": "[8]; Part B", "result": -0.01, "unit": "ms/ng/mL"}, {"measurement": "predicted ΔΔQTcF at the observed geometric mean Cmax", "setting": "[8]; Part B, 400 mg alone", "result": -3.4, "unit": "ms"}, {"measurement": "estimated population slope of the C-QTc relationship", "setting": "[8]; [14]", "result": 0.01, "unit": "ms per ng/mL"}, {"measurement": "intercept of the C-QTc relationship", "setting": "[8]; [14]", "result": -2.0, "unit": "ms"}, {"measurement": "predicted ΔΔQTcF at the observed geometric mean Cmax", "setting": "[8]; Part B, rilzabrutinib 400 mg with ritonavir", "result": -9.9, "unit": "ms"}, {"measurement": "predicted ΔΔQTcF interval at Cmax", "setting": "[8]; both therapeutic and supratherapeutic dose groups", "result": "< 0", "unit": "ms"}, {"measurement": "predicted upper bound 90% CI of QTc effect", "setting": "[8]; therapeutic and supratherapeutic concentrations", "result": "< 10", "unit": "ms"}, {"measurement": "anti-inflammatory effects", "setting": "[9]", "result": "rapid and significant anti‐inflammatory effects"}, {"measurement": "Tmax, Median (range)", "setting": "[10]", "result": "2.1 (0.6–4.1) h"}, {"measurement": "AUC(0-t)", "setting": "[10]; human, in vivo, 400 mg, AUC0–last, Mean (SD)", "result": 455, "unit": "ng·h/mL"}]}]}
